Test results as given in ChEMBL document CHEMBL3045527, “Herbicides for control of isoproturon-resistant Littleseed Canarygrass (Phalaris minor) in wheat” (2008).

Key:
Format in all cases: functional
Phalaris minor [1] = assay: Herbicidal activity against isoproturon-resistant Phalaris minor infested wheat field assessed as weed dry weight at 60 g/ha applied at 35 days after sowing through sprayer measured 95 days after sowing (reference value: 213.0 g/m2)
Medicago polymorpha [2] = assay: Herbicidal activity against Medicago polymorpha infested wheat field assessed as weed dry weight at 60 g/ha applied at 32 to 35 days after sowing through sprayer measured 100 days after sowing (reference value: 313.7 g/m2)
Phalaris minor [3] = assay: Herbicidal activity against isoproturon-resistant Phalaris minor infested wheat field assessed as wheat yield at 60 g/ha applied at 32 to 35 days after sowing through sprayer (reference value: 3.41 t/ha)
Melilotus albus [4] = assay: Herbicidal activity against Melilotus albus infested wheat field assessed as weed dry weight at 60 g/ha applied at 32 to 35 days after sowing through sprayer measured 100 days after sowing (reference value: 313.7 g/m2)
Lepidium didymum [5] = assay: Herbicidal activity against Lepidium didymum infested wheat field assessed as weed dry weight at 60 g/ha applied at 32 to 35 days after sowing through sprayer measured 100 days after sowing (reference value: 313.7 g/m2)
Phalaris minor [6] = assay: Herbicidal activity against isoproturon-resistant Phalaris minor infested wheat field assessed as weed dry weight at 60 g/ha applied at 32 to 35 days after sowing through sprayer measured 100 days after sowing (reference value: 313.7 g/m2)
Phalaris minor [7] = assay: Herbicidal activity against isoproturon-resistant Phalaris minor infested wheat field assessed as wheat yield at 60 g/ha applied at 35 days after sowing through sprayer measured 95 days after sowing (reference value: 3.05 t/ha)
Melilotus albus [8] = assay: Herbicidal activity against Melilotus albus infested wheat field assessed as weed dry weight at 120 g/ha applied at 32 to 35 days after sowing through sprayer measured 100 days after sowing (reference value: 313.7 g/m2)
Lepidium didymum [9] = assay: Herbicidal activity against Lepidium didymum infested wheat field assessed as weed dry weight at 120 g/ha applied at 32 to 35 days after sowing through sprayer measured 100 days after sowing (reference value: 313.7 g/m2)
Medicago polymorpha [10] = assay: Herbicidal activity against Medicago polymorpha infested wheat field assessed as weed dry weight at 120 g/ha applied at 32 to 35 days after sowing through sprayer measured 100 days after sowing (reference value: 313.7 g/m2)
Phalaris minor [11] = assay: Herbicidal activity against isoproturon-resistant Phalaris minor infested wheat field assessed as wheat yield at 120 g/ha applied at 32 to 35 days after sowing through sprayer (reference value: 3.41 t/ha)
Phalaris minor [12] = assay: Herbicidal activity against isoproturon-resistant Phalaris minor infested wheat field assessed as weed dry weight at 120 g/ha applied at 32 to 35 days after sowing through sprayer measured 100 days after sowing (reference value: 313.7 g/m2)
Lepidium didymum [13] = assay: Herbicidal activity against Lepidium didymum infested wheat field assessed as weed dry weight at 1000 g/ha applied at 32 to 35 days after sowing through sprayer measured 100 days after sowing (reference value: 313.7 g/m2)
Phalaris minor [14] = assay: Herbicidal activity against isoproturon-resistant Phalaris minor infested wheat field assessed as weed dry weight at 1000 g/ha applied at 35 days after sowing through sprayer measured 95 days after sowing (reference value: 213.0 g/m2)
Phalaris minor [15] = assay: Herbicidal activity against isoproturon-resistant Phalaris minor infested wheat field assessed as wheat yield at 1000 g/ha applied at 35 days after sowing through sprayer measured 95 days after sowing (reference value: 3.05 t/ha)
Phalaris minor [16] = assay: Post-emergence herbicidal activity against isoproturon-resistant Phalaris minor infested wheat field assessed as reduction in weed dry weight at 1000 g/ha applied on 1 after sowing through sprayer measured 120 days after sowing relative to control; set-up: scale not given: the % may be the effect or the level left
Medicago polymorpha [17] = assay: Herbicidal activity against Medicago polymorpha infested wheat field assessed as weed dry weight at 1000 g/ha applied at 32 to 35 days after sowing through sprayer measured 100 days after sowing (reference value: 313.7 g/m2)
Phalaris minor [18] = assay: Herbicidal activity against isoproturon-resistant Phalaris minor infested wheat field assessed as weed dry weight at 1000 g/ha applied at 32 to 35 days after sowing through sprayer measured 100 days after sowing (reference value: 313.7 g/m2)
Phalaris minor [19] = assay: Herbicidal activity against isoproturon-resistant Phalaris minor infested wheat field assessed as wheat yield at 1000 g/ha applied at 32 to 35 days after sowing through sprayer (reference value: 3.41 t/ha)
Melilotus albus [20] = assay: Herbicidal activity against Melilotus albus infested wheat field assessed as weed dry weight at 1000 g/ha applied at 32 to 35 days after sowing through sprayer measured 100 days after sowing (reference value: 313.7 g/m2)
Phalaris minor [21] = assay: Post-emergence herbicidal activity against isoproturon-resistant Phalaris minor infested wheat field assessed as reduction in weed dry weight at 280 g/ha applied on 1 after sowing through sprayer measured 120 days after sowing relative to control; set-up: scale not given: the % may be the effect or the level left
Phalaris minor [22] = assay: Pre-emergence herbicidal activity against isoproturon-resistant Phalaris minor infested wheat field assessed as reduction in weed dry weight at 1250 g/ha applied on 1 after sowing through sprayer measured 120 days after sowing relative to control; set-up: scale not given: the % may be the effect or the level left
Phalaris minor [23] = assay: Herbicidal activity against isoproturon-resistant Phalaris minor infested wheat field assessed as wheat yield at 35 g/ha applied at 35 days after sowing through sprayer in presence of 0.5 % surfactant A 12127 measured 95 days after sowing (reference value: 3.05 t/ha)
Phalaris minor [24] = assay: Herbicidal activity against isoproturon-resistant Phalaris minor infested wheat field assessed as weed dry weight at 30 g/ha applied at 35 days after sowing through sprayer in presence of 0.5 % surfactant A 12127 measured 95 days after sowing (reference value: 213.0 g/m2)
Phalaris minor [25] = assay: Herbicidal activity against isoproturon-resistant Phalaris minor infested wheat field assessed as wheat yield at 30 g/ha applied at 35 days after sowing through sprayer in presence of 0.5 % surfactant A 12127 measured 95 days after sowing (reference value: 3.05 t/ha)
Phalaris minor [26] = assay: Herbicidal activity against isoproturon-resistant Phalaris minor infested wheat field assessed as weed dry weight at 35 g/ha applied at 35 days after sowing through sprayer in presence of 0.5 % surfactant A 12127 measured 95 days after sowing (reference value: 213.0 g/m2)
Phalaris minor [27] = assay: Herbicidal activity against isoproturon-resistant Phalaris minor infested wheat field assessed as weed dry weight at 120 g/ha applied at 32 to 35 days after sowing through sprayer in presence of surfactant MON 0818 measured 100 days after sowing (reference value: 313.7 g/m2)
Melilotus albus [28] = assay: Herbicidal activity against Melilotus albus infested wheat field assessed as weed dry weight at 120 g/ha applied at 32 to 35 days after sowing through sprayer in presence of surfactant MON 0818 measured 100 days after sowing (reference value: 313.7 g/m2)
Lepidium didymum [29] = assay: Herbicidal activity against Lepidium didymum infested wheat field assessed as weed dry weight at 120 g/ha applied at 32 to 35 days after sowing through sprayer in presence of surfactant MON 0818 measured 100 days after sowing (reference value: 313.7 g/m2)
Medicago polymorpha [30] = assay: Herbicidal activity against Medicago polymorpha infested wheat field assessed as weed dry weight at 120 g/ha applied at 32 to 35 days after sowing through sprayer in presence of surfactant MON 0818 measured 100 days after sowing (reference value: 313.7 g/m2)
Phalaris minor [31] = assay: Post-emergence herbicidal activity against isoproturon-resistant Phalaris minor infested wheat field assessed as reduction in weed dry weight at 25 g/ha applied on 1 after sowing through sprayer measured 120 days after sowing relative to control; set-up: scale not given: the % may be the effect or the level left
Phalaris minor [32] = assay: Herbicidal activity against isoproturon-resistant Phalaris minor infested wheat field assessed as wheat yield at 120 g/ha applied at 32 to 35 days after sowing through sprayer in presence of surfactant MON 0818 (reference value: 3.41 t/ha)

`C[C@@H](Oc1ccc(Oc2ncc(Cl)cc2F)cc1)C(=O)O` [CLODINAFOP] showed an Activity (Phalaris minor [1]) of 0.6 g/m2, an Activity (Medicago polymorpha [2]) of 38.3 g/m2 and a Crop_yield (Phalaris minor [3]) of 6.01 tons/ha. It also gave an Activity (Melilotus albus [4]) of 38.3 g/m2, an Activity (Lepidium didymum [5]) of 38.3 g/m2 and an Activity (Phalaris minor [6]) of 0.6 g/m2. The Crop_yield (Phalaris minor [7]) was 5.42 tons/ha.
`C[C@@H](Oc1ccc(Oc2nc3ccc(Cl)cc3o2)cc1)C(=O)O` [FENOXAPROP-P] showed an Activity (Melilotus albus [8]) of 25.2 g/m2, an Activity (Lepidium didymum [9]) of 25.2 g/m2 and an Activity (Medicago polymorpha [10]) of 25.2 g/m2. The Crop_yield (Phalaris minor [11]) was 5.96 tons/ha and the Activity (Phalaris minor [12]) was 5.9 g/m2.
Work on `CC(C)c1ccc(NC(=O)N(C)C)cc1` [ISOPROTURON] yielded an Activity (Lepidium didymum [13]) of 3 g/m2, an Activity (Phalaris minor [14]) of 179.2 g/m2 and a Crop_yield (Phalaris minor [15]) of 3.61 tons/ha. For the same molecule, the Activity (Phalaris minor [16]) was 26.2%, the Activity (Medicago polymorpha [17]) was 3 g/m2 and the Activity (Phalaris minor [18]) was 242 g/m2. It also gave a Crop_yield (Phalaris minor [19]) of 3.99 tons/ha and an Activity (Melilotus albus [20]) of 3 g/m2.
Work on `CSc1nnc(C(C)(C)C)c(=O)n1N` [METRIBUZIN] yielded an Activity (Phalaris minor [21]) of 94.7%.
Work on `CCC(CC)Nc1c([N+](=O)[O-])cc(C)c(C)c1[N+](=O)[O-]` [PENDIMETHALIN] yielded an Activity (Phalaris minor [22]) of 88.5%.
`CCc1cc(C)cc(CC)c1-c1c(OC(=O)C(C)(C)C)n2n(c1=O)CCOCC2` [PINOXADEN] was tested, and the Crop_yield (Phalaris minor [23]) was 5.38 tons/ha, the Activity (Phalaris minor [24]) was 2.3 g/m2 and the Crop_yield (Phalaris minor [25]) was 5.44 tons/ha. For the same molecule, the Activity (Phalaris minor [26]) was 0.3 g/m2.
`CCS(=O)(=O)c1nc2ccccn2c1S(=O)(=O)NC(=O)Nc1nc(OC)cc(OC)n1` [SULFOSULFURON] showed an Activity (Phalaris minor [27]) of 0.3 g/m2, an Activity (Melilotus albus [28]) of 1.8 g/m2 and an Activity (Lepidium didymum [29]) of 1.8 g/m2. The Activity (Medicago polymorpha [30]) was 1.8 g/m2, the Activity (Phalaris minor [31]) was 93.8% and the Crop_yield (Phalaris minor [32]) was 6.2 tons/ha.
